Reference: patent publication US7867749B2, “Nematode phosphoethanolamine N-methyltransferase-like sequences” (priority 2006, dated 2011)
Like-named read-outs stand apart in the source and are kept apart here.

Assays:
[1] = system: C. elegans; experiment: Nematicidal activity of ethanolamine-like compounds against C. elegans; type: in vivo, Caenorhabditis elegans; conditions: P0 L4 larva; for F1 PHENOTYPE: 23° C.; for nematicidal activity against C. elegans: various concentrations
[2] = system: A. ellesmerensis; experiment: Nematicidal activity against other nematodes; type: in vivo, Acrobiloides ellesmerensis
[3] = system: Cephalobus sp.; experiment: Nematicidal activity against other nematodes; type: in vivo
[4] = system: M. incognita; type: in vivo, Meloidogyne incongnita; conditions: J2 larvae soaked 48 hours
Protocol: (§1) The ethanolamine-like compounds mentioned above are also nematicidal against the plant parasites Meloidogyne incongnita and Meloidogyne javanica. Between 25 and 50 J2 stage larvae were soaked in the compounds for 48 hours at the indicated concentrations. After the treatment, the larvae were moved to an agar plate containing NGM. Worms that crawl away from the application spot are scored as alive while those that remain at the application spot are scored as dead. The three compounds that were nematicidal against C. elegans were also nematicidal against M. incognita and M. javanica

[5] = system: M. javanica; experiment: Nematicidal activity against plant parasites, J2 larvae soak; type: in vivo, Meloidogyne javanica; conditions: 15 mM; J2 larvae soaked 48 hours
Protocol: as §1

[6] = system: C. elegans; experiment: Chemical rescue of the PEAMT2 RNAi-generated phenotype (feeding); type: in vivo, Caenorhabditis elegans; conditions: for rescue of PEAMT2 RNAi phenotype: chemical complementation, singly or in combination, concentration not given
[7] = target: T1, C. elegans PEAMT2 (DIV3202) (Caenorhabditis elegans, UniProt Q22993); experiment: Km determination, radiochemical PEAMT assay; type: biochemical; conditions: 118 nM DIV3202H+
T1 sequence (Q22993 1-437): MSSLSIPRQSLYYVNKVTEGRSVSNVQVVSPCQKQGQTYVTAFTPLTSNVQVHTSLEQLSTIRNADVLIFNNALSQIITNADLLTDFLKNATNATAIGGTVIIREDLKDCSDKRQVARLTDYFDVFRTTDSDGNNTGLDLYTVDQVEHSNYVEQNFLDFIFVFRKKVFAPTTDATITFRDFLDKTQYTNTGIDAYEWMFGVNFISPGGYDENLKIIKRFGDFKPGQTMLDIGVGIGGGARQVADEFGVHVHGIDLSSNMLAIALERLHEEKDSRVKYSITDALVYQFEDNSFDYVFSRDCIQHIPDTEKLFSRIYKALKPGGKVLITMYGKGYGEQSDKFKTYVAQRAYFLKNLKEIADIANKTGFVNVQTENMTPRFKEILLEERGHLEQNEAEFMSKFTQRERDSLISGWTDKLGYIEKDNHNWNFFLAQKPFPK

[8] = system: C. elegans; experiment: Chemical rescue of the PEAMT1 RNAi-generated phenotype (feeding); type: in vivo, Caenorhabditis elegans; conditions: for rescue of PEAMT1 mutants (RNAi-generated): 5 mM; for suppression of PEAMT1 larval lethal RNAi phenotype: chemical complementation, concentration not given
[9] = system: everted hamster jejunal and ileal segments; conditions: cited from earlier work
[10] = system: isolated intestinal epithelial cells; conditions: cited from earlier work
[11] = target: T2, C. elegans PEAMT1 (DIV3441) (Caenorhabditis elegans, UniProt Q23552); experiment: Km determination, radiochemical PEAMT assay; type: biochemical
T2 construct: HIS tag (pET28a) (N); made in house; host or cells: bacterial culture, IPTG-induced pET28a
T2 sequence (Q23552 1-475): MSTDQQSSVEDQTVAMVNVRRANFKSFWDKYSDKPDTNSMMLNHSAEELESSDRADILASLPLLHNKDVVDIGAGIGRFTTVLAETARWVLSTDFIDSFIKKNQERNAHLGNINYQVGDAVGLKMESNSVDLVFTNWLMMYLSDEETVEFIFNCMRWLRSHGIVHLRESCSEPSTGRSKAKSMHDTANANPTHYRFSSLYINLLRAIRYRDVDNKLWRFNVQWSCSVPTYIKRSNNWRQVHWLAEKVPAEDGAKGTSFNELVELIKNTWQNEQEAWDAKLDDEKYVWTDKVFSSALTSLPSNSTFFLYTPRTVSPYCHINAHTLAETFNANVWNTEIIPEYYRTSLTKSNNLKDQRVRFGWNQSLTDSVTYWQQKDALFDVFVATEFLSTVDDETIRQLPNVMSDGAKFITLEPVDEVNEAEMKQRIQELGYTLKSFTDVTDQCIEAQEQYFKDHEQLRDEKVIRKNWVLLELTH

[12] = P0 L4, 5 or 10 mM in plate media

CC(C)(C)NCCO [2-(tert-butylamino)ethanol]
F1 PHENOTYPE ([1]; 10 mM): L1/L2 arrest/lethality
nematicidal activity against C. elegans [1]: showed nematicidal activity
F1 PHENOTYPE ([2]; 10 mM): L1/L2 arrest/lethality
F1 PHENOTYPE ([3]; 10 mM): L1/L2 arrest/lethality
% DEAD WORMS ([4]; 5 mM): 50%
% DEAD WORMS [5]: 50%

NCC(O)c1ccccc1 (stereo not drawn) [2-amino-1-phenylethanol]
F1 PHENOTYPE ([1]; 25 mM): Wild-type development
nematicidal activity against C. elegans [1]: no nematicidal effect

N[C@@H](CO)Cc1ccccc1 [D-phenylalaninol]
F1 PHENOTYPE ([1]; 10 mM): L1/L2 arrest/lethality
nematicidal activity against C. elegans [1]: showed nematicidal activity
F1 PHENOTYPE ([2]; 12.5 mM): L1/L2 arrest/lethality
F1 PHENOTYPE ([3]; 12.5 mM): L1/L2 arrest/lethality
% DEAD WORMS ([4]; 25 mM): 100%

CN(C)CCO [DME, dimethylethanolamine]
F1 phenotype, PEAMT2 dsRNA ([6]; P0 Dauer, 10 mM in plate media): Sterility
F1 phenotype, PEAMT2 dsRNA ([6]; P0 L1, 10 mM in plate media): Sterility
F1 phenotype, PEAMT2 dsRNA [6, 12]: L1/L2 arrest/lethality
rescue of PEAMT2 RNAi phenotype [6]: not
Km ([7]; 1 mM SAM, 0.05-10 mM DME, read-out: Km of DME for DIV3202H+ (PEAMT2H+; intact HIS tag)): 1.39 ± 0.26 µM
rescue of PEAMT1 mutants (RNAi-generated) [8]: rescued
rescue of sterility associated with PEAMT1 RNAi ([8]; Five mM): rescues the sterility
F1 phenotype, PEAMT1 dsRNA ([8]; P0 Dauer, 10 mM in plate media): Fertile adults
F1 phenotype, PEAMT1 dsRNA ([8]; P0 L1, 10 mM in plate media): Fertile adults
F1 phenotype, PEAMT1 dsRNA [8, 12]: Fertile adults

CNCCO [MME, monomethylethanolamine]
F1 phenotype, PEAMT2 dsRNA [6, 12]: L1/L2 arrest/lethality
rescue of PEAMT2 RNAi phenotype [6]: not
Km ([7]; 1 mM SAM, 0.15-20 mM MME, read-out: Km of MME for DIV3202H+ (PEAMT2H+; intact HIS tag)): 2.1 ± 0.97 µM
rescue of PEAMT1 mutants (RNAi-generated) [8]: rescued
F1 phenotype, PEAMT1 dsRNA [8, 12]: Fertile adults
suppression of PEAMT1 larval lethal RNAi phenotype [8]: suppressed

OCCNc1ccccc1 [N-(2-hydroxyethyl)aniline]
F1 PHENOTYPE ([1]; 10 mM): L1/L2 arrest/lethality
nematicidal activity against C. elegans [1]: showed nematicidal activity

CCCCCC[C@@H](O)C/C=C\CCCCCCCC(=O)O [Ricinoleic acid]
effect on water and electrolyte absorption [9]: inhibitory effect
cytotoxicity [10]: cytotoxic

C[S+](CC[C@H](N)C(=O)O)C[C@H]1O[C@@H](n2cnc3c(N)ncnc32)[C@H](O)[C@@H]1O (stereo partly drawn) [S-adenosyl-L-methionine]
Km ([11]; read-out: Km of S-adenosyl-L-methionine for DIV3441H+ (PEAMT1H+; intact HIS tag)): 62.5 ± 9.68 µM
Km ([11]; read-out: Km of S-adenosyl-L-methionine for DIV3441H− (PEAMT1H−; cleaved HIS tag)): 146 ± 31.1 µM
Km ([7]; 10 mM DME, 0.004-3 mM SAM, read-out: Km of S-adenosyl-L-methionine for DIV3202H+ (PEAMT2H+; intact HIS tag)): 167 ± 34.6 µM
Km ([7]; 30 mM MME, 0.004-3 mM SAM, read-out: Km of S-adenosyl-L-methionine for DIV3202H+ (PEAMT2H+; intact HIS tag)): 163 ± 42.4 µM

NCCO [ethanolamine (EA), ethanolamine]
F1 phenotype, PEAMT2 dsRNA ([6]; P0 L4, 10 mM in plate media): L1/L2 arrest/lethality
rescue of PEAMT2 RNAi phenotype [6]: not
F1 phenotype, PEAMT1 dsRNA ([8]; P0 L4, 10 mM in plate media): L1/L2 arrest/lethality
suppression of PEAMT1 larval lethal RNAi phenotype [8]: not

CCCCCC[C@@H](O)C/C=C\CCCCCCCC(=O)OC [methyl ester of ricinoleic acid]
effect on water and electrolyte absorption [9]: ineffective
